Test results taken from patent US10259810B2, “N-sulfonylated pyrazolo[3,4-b]pyridin-6-carboxamides and method of use” (AbbVie S.à.r.l., priority 2015, dated 2019).

Key:
[1] = target: T1, ΔF508-CFTR (Homo sapiens, UniProt P13569, DEL508-508); experiment: CFTR cell surface levels using HRP-tagged ΔF508-CFTR expressing CFBE cells, intrinsic corrector capacity; format: cell-based; set-up: % Activation: concentration or dose not given beside the values
T1 construct: host or cells: CFBE41o-, doxycycline-inducible
Method in brief: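 Surface ΔF508-CFTR was measured as HRP chemiluminescence from an extracellular-loop-4 tag, expressed as percent activity between DMSO and a […] corrector control.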

[2] = target: T1, ΔF508-CFTR; experiment: CFTR cell surface levels using HRP-tagged ΔF508-CFTR expressing CFBE cells, in the presence of a co-corrector; format: cell-based
Method in brief: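 Chemiluminescent read-out of surface HRP (15 min, dark) after PBS washes. Activity is normalized as 100×(sample−DMSO)/(3 μM co-corrector alone−DMSO).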

[3] = HRP-tagged ΔF508-CFTR expressing CFBE41o- cells, compound alone (intrinsic corrector capacity), 20 hours at 33° C.
[4] = HRP-tagged ΔF508-CFTR expressing CFBE41o- cells, compound alone (intrinsic corrector capacity), 20 hours at 33° C., read-out: EC50
[5] = HRP-tagged ΔF508-CFTR CFBE cells, in the presence of 3 μM co-corrector
[6] = HRP-tagged ΔF508-CFTR CFBE cells, in the presence of 3 μM co-corrector, read-out: EC50

T1 sequence (P13569 with tags, fused parts or gaps DEL508-508): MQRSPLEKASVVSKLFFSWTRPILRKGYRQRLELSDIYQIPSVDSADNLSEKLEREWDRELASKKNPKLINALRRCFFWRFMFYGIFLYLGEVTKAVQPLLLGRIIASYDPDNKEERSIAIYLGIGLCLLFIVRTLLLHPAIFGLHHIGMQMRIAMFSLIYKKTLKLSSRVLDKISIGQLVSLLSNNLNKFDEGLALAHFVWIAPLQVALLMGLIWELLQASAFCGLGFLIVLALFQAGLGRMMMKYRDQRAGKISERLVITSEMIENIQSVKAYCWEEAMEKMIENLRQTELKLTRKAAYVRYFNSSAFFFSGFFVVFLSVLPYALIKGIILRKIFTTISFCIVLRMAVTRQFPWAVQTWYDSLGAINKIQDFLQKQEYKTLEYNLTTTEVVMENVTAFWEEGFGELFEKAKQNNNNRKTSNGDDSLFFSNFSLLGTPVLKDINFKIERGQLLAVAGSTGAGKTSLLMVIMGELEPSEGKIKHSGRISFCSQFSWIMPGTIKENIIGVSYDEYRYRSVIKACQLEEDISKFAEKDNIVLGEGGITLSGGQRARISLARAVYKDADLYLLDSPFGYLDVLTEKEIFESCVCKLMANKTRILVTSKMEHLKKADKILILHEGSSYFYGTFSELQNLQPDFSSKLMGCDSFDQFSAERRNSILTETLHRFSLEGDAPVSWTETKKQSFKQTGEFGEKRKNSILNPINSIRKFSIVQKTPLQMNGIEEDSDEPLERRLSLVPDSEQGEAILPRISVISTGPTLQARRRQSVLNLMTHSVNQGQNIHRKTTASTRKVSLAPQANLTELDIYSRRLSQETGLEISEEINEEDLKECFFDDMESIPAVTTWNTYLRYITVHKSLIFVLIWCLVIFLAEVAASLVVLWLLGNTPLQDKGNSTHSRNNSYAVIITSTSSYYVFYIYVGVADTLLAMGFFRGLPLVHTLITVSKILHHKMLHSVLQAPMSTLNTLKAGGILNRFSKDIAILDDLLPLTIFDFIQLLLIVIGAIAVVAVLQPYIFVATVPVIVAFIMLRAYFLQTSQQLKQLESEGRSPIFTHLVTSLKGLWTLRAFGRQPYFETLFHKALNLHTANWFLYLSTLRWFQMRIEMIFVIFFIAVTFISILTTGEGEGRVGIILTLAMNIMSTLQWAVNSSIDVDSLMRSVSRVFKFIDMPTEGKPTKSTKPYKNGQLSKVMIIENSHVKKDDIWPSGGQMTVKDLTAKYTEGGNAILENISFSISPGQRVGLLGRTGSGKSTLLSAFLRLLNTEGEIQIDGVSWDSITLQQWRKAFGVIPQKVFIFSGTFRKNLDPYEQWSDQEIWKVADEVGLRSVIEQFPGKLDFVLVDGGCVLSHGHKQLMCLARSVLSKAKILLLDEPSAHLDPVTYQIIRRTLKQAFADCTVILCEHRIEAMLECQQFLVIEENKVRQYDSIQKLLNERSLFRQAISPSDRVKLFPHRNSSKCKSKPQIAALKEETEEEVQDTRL

| Structure (SMILES) | % Activation [1, 3] [%] | EC50 [1, 4] [nM] | % Activation [2, 5] [%] | EC50 [2, 6] [nM] | EC50 [1] [nM] | EC50 [2] [nM] |
| --- | --- | --- | --- | --- | --- | --- |
| COCC1CCN(c2cc(C(=O)NS(=O)(=O)C3CC3)nc3c2c(C2CCC2)nn3-c2ccccc2)CC1 [Compound 401, 3-cyclobutyl-N-(cyclopropanesulfonyl)-4-[4-(methoxymethyl)piperidin-1-yl]-1-phenyl-1H-pyrazolo[3,4-b]pyridine-6-carboxamide] | 400.8 | 104 | 595.1 | 62 |  |  |
| CCS(=O)(=O)NC(=O)c1cc(N2CCC(COC)CC2)c2c(C3CCC3)nn(-c3ccccc3)c2n1 [Compound 403, 3-cyclobutyl-N-(ethanesulfonyl)-4-[4-(methoxymethyl)piperidin-1-yl]-1-phenyl-1H-pyrazolo[3,4-b]pyridine-6-carboxamide] | 389.2 | 30.2 | 507.35 | 25.6 |  |  |
| COCCS(=O)(=O)NC(=O)c1cc(N2CCC(N3CCOCC3)CC2)c2c(C3CCC3)nn(C3CCCCC3)c2n1 [Compound 419, 3-cyclobutyl-1-cyclohexyl-N-(2-methoxyethanesulfonyl)-4-[4-(morpholin-4-yl)piperidin-1-yl]-1H-pyrazolo[3,4-b]pyridine-6-carboxamide] | 293 | 448 | 505.65 | 277 |  |  |
| CN(C)S(=O)(=O)NC(=O)c1cc(N2CCC(CCN3CCOCC3)CC2)c2c(C3CCC3)nn(C3CCCCC3)c2n1 [Compound 425, 3-cyclobutyl-1-cyclohexyl-N-(dimethylsulfamoyl)-4-{4-[2-(morpholin-4-yl)ethyl]piperidin-1-yl}-1H-pyrazolo[3,4-b]pyridine-6-carboxamide] | 280.2 | 277 | 462.85 | 166 |  |  |
| CN(C)S(=O)(=O)NC(=O)c1cc(N2CCC(N3CCCCC3)CC2)c2c(C3CCC3)nn(-c3ccccc3)c2n1 [Compound 426, 4-([1,4′-bipiperidin]-1′-yl)-3-cyclobutyl-N-(dimethylsulfamoyl)-1-phenyl-1H-pyrazolo[3,4-b]pyridine-6-carboxamide] | 143.7 |  | 385.3 |  | 302 | 82 |
| COCC1CCN(c2cc(C(=O)NS(C)(=O)=O)nc3c2c(C2CCC2)nn3-c2ccnc(C)c2)CC1 [Compound 430, 3-cyclobutyl-N-(methanesulfonyl)-4-[4-(methoxymethyl)piperidin-1-yl]-1-(2-methylpyridin-4-yl)-1H-pyrazolo[3,4-b]pyridine-6-carboxamide] | 170.05 | 231 | 383.7 | 89.9 |  |  |
| CCCN(C)S(=O)(=O)NC(=O)c1cc(N2CCC(N3CCOCC3)CC2)c2c(C3CCC3)nn(-c3ccccc3)c2n1 [Compound 432, 3-cyclobutyl-N-[methyl(propyl)sulfamoyl]-4-[4-(morpholin-4-yl)piperidin-1-yl]-1-phenyl-1H-pyrazolo[3,4-b]pyridine-6-carboxamide] | 243.6 | 119 | 514.83 | 65.9 |  |  |
| CCOC(=O)N1CCC(NS(=O)(=O)NC(=O)c2cc(N3CCC(N4CCOCC4)CC3)c3c(C4CCC4)nn(-c4ccccc4)c3n2)CC1 [Compound 433, ethyl 4-[({3-cyclobutyl-4-[4-(morpholin-4-yl)piperidin-1-yl]-1-phenyl-1H-pyrazolo[3,4-b]pyridine-6-carbonyl}sulfamoyl)amino]piperidine-1-carboxylate] | 361.5 | 96.5 | 563.8 | 49 |  |  |
| O=C(NS(=O)(=O)N1CCC(F)CC1)c1cc(N2CCC(N3CCOCC3)CC2)c2c(C3CCC3)nn(-c3ccccc3)c2n1 [Compound 434, 3-cyclobutyl-N-(4-fluoropiperidine-1-sulfonyl)-4-[4-(morpholin-4-yl)piperidin-1-yl]-1-phenyl-1H-pyrazolo[3,4-b]pyridine-6-carboxamide] | 245.2 | 57.7 | 470.37 | 59.5 |  |  |
| CC1(S(=O)(=O)NC(=O)c2cc(N3CCC(N4CCOCC4)CC3)c3c(C4CCC4)nn(-c4ccccc4)c3n2)CC1 [Compound 435, 3-cyclobutyl-N-(1-methylcyclopropane-1-sulfonyl)-4-[4-(morpholin-4-yl)piperidin-1-yl]-1-phenyl-1H-pyrazolo[3,4-b]pyridine-6-carboxamide] | 269.9 | 136 | 474.8 | 82.8 |  |  |
| O=C(NS(=O)(=O)C1CC1)c1cc(N2CCC(N3CCOCC3)CC2)c2c(C3CCC3)nn(-c3ccccc3)c2n1 [Compound 436, 3-cyclobutyl-N-(cyclopropanesulfonyl)-4-[4-(morpholin-4-yl)piperidin-1-yl]-1-phenyl-1H-pyrazolo[3,4-b]pyridine-6-carboxamide] | 393.3 | 344 | 568.6 | 71.1 |  |  |
| CCS(=O)(=O)NC(=O)c1cc(N2CCC(N3CCOCC3)CC2)c2c(C3CCC3)nn(-c3ccccc3)c2n1 [Compound 437, 3-cyclobutyl-N-(ethanesulfonyl)-4-[4-(morpholin-4-yl)piperidin-1-yl]-1-phenyl-1H-pyrazolo[3,4-b]pyridine-6-carboxamide] | 353.8 |  | 563.64 |  |  |  |
| COCCS(=O)(=O)NC(=O)c1cc(N2CCC(N3CCOCC3)CC2)c2c(C3CCC3)nn(-c3ccccc3)c2n1 [Compound 438, 3-cyclobutyl-N-(2-methoxyethanesulfonyl)-4-[4-(morpholin-4-yl)piperidin-1-yl]-1-phenyl-1H-pyrazolo[3,4-b]pyridine-6-carboxamide] | 337 | 392 | 541.5 | 380 |  |  |
| COC[C@@H]1CCCN1C1CCN(S(=O)(=O)NC(=O)c2cc(N3CCC(N4CCOCC4)CC3)c3c(C4CCC4)nn(-c4ccccc4)c3n2)CC1 [Compound 439, 3-cyclobutyl-N-{4-[(2S)-2-(methoxymethyl)pyrrolidin-1-yl]piperidine-1-sulfonyl}-4-[4-(morpholin-4-yl)piperidin-1-yl]-1-phenyl-1H-pyrazolo[3,4-b]pyridine-6-carboxamide] | 166.8 | 550 | 374.6 | 381 |  |  |
| CC(C)Oc1nn(C2CCCCC2)c2nc(C(=O)NS(=O)(=O)N(C)C)cc(-c3ccc(CN4CCN(C)CC4)cc3)c12 [Compound 442, 1-cyclohexyl-N-(dimethylsulfamoyl)-4-{4-[(4-methylpiperazin-1-yl)methyl]phenyl}-3-[(propan-2-yl)oxy]-1H-pyrazolo[3,4-b]pyridine-6-carboxamide] | 146.8 | 307 | 342 | 1110 |  |  |
| CC(C)Oc1nn(C2CCCCC2)c2nc(C(=O)NS(=O)(=O)N(C)C)cc(-c3ccc(CN4CCCC4)cc3)c12 [Compound 444, 1-cyclohexyl-N-(dimethylsulfamoyl)-3-[(propan-2-yl)oxy]-4-{4-[(pyrrolidin-1-yl)methyl]phenyl}-1H-pyrazolo[3,4-b]pyridine-6-carboxamide] | 162.5 | 345 | 361.3 | 235 |  |  |
| CS(=O)(=O)NC(=O)c1cc(N2CCC(N3CCCCC3)CC2)c2c(C3CCC3)nn(-c3ccc(F)cc3)c2n1 [Compound 450, 4-([1,4'-bipiperidin]-1'-yl)-3-cyclobutyl-1-(4-fluorophenyl)-N-(methanesulfonyl)-1H-pyrazolo[3,4-b]pyridine-6-carboxamide] | 253.5 | 617 | 443.25 | 246 |  |  |
| O=C(NS(=O)(=O)C1CCOC1)c1cc(N2CCC(N3CCCCC3)CC2)c2c(C3CCC3)nn(-c3ccc(F)cc3)c2n1 (centres unmarked) [Compound 451, 4-([1,4'-bipiperidin]-1'-yl)-3-cyclobutyl-1-(4-fluorophenyl)-N-(oxolane-3-sulfonyl)-1H-pyrazolo[3,4-b]pyridine-6-carboxamide] | 184.1 | 1700 | 391 | 2100 |  |  |
| O=C(NS(=O)(=O)C1CCOC1)c1cc(N2CCC(CCN3CCOCC3)CC2)c2c(C3CCC3)nn(-c3ccc(F)cc3)c2n1 (centres unmarked) [Compound 452, 3-cyclobutyl-1-(4-fluorophenyl)-4-{4-[2-(morpholin-4-yl)ethyl]piperidin-1-yl}-N-(oxolane-3-sulfonyl)-1H-pyrazolo[3,4-b]pyridine-6-carboxamide] | 239.8 | 408 | 478.25 | 942 |  |  |
